Data from ChEMBL document CHEMBL1201862, “PubChem BioAssay data set” (2004).
Active and inactive are the calls of the source.

Experiments:
Assay type in all cases: functional
[1] = target: 5-hydroxytryptamine receptor 5A (Homo sapiens, UniProt P47898); test: Counterscreen for agonists of OPRM1-OPRD1 heterodimerization: luminescence-based cell-based high throughput dose response assay to identify agonists of 5-hydroxytryptamine (serotonin) 5A receptor (HTR5A). [Related pubchem assays (depositor defined):AID504326, AID504355, AID504692, AID504904, AID504905]
5-hydroxytryptamine receptor 5A, sequence (P47898 whole entry): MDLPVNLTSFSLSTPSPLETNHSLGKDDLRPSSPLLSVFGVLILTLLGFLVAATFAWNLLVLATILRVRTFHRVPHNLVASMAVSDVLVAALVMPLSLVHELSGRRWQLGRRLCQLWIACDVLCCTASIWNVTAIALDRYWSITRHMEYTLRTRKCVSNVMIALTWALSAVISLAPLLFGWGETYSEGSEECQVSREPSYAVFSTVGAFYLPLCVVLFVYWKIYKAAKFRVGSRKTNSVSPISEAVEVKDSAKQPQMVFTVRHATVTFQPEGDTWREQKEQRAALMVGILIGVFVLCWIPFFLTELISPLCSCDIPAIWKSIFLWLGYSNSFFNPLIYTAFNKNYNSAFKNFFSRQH

[2] = target: T1, High affinity choline transporter 1 (Homo sapiens, UniProt Q9GZV3); test: CHT inhibitors, dose response, cell-based, 5-point CRC, membrane potential dye (AID 504840)
T1 sequence (Q9GZV3 whole entry): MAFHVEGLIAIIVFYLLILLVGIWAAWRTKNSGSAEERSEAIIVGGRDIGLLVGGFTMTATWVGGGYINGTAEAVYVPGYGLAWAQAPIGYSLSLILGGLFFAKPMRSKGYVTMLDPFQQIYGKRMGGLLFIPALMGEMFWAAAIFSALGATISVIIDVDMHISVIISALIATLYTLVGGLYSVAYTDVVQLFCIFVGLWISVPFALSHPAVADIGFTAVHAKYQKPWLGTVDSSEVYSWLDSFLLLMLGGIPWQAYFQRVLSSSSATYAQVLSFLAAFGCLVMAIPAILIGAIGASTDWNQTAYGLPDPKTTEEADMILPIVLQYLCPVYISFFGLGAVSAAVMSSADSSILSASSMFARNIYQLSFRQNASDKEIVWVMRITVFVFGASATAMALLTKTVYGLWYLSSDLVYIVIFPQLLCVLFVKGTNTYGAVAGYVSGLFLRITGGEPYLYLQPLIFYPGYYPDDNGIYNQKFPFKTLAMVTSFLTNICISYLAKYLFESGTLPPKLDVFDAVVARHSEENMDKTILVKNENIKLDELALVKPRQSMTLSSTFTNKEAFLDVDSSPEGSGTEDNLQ

[3] = target: Delta-type opioid receptor (Homo sapiens, UniProt P41143); test: Counterscreen for agonists of heterodimerization of the mu 1 (OPRM1) and delta 1 (OPRD1) opioid receptors: Luminescence-based cell-based high throughput dose response assay to identify agonists of OPRD1 homodimerization. [Related pubchem assays (depositor defined):AID504326, AID504355, AID504692, AID504904, AID504905]
Delta-type opioid receptor, sequence (P41143 whole entry): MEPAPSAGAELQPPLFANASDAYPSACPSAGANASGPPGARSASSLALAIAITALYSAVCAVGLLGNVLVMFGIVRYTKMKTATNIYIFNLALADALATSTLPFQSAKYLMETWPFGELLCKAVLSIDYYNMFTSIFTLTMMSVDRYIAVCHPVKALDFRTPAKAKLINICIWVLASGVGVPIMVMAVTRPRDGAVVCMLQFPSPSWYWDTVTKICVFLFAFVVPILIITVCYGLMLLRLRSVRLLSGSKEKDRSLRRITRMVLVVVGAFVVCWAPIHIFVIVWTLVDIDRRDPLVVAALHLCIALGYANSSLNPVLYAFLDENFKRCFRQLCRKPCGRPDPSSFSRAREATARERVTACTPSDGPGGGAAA

[4] = target: Mu-type opioid receptor (Homo sapiens, UniProt P35372); test: Counterscreen for agonists of heterodimerization of the mu 1 (OPRM1) and delta 1 (OPRD1) opioid receptors: Luminescence-based cell-based high throughput dose response assay to identify agonists of OPRM1 homodimerization.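 Note: U2OS cells expressing OPRM1 and beta-arrestin as split beta-galactosidase partners.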
Mu-type opioid receptor, sequence (P35372 whole entry): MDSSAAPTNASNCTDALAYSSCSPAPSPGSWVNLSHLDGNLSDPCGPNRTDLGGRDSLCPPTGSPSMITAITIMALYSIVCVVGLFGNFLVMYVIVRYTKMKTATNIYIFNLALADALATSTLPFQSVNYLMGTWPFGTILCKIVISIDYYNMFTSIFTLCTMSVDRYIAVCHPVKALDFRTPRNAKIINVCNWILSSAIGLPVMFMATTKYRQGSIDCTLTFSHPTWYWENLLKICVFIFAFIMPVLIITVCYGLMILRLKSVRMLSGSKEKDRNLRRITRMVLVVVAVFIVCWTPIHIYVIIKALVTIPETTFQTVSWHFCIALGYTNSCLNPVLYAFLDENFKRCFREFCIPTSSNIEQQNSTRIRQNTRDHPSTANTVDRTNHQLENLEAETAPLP

[5] = target: T1, High affinity choline transporter 1; test: CHT inhibitors, dose response, cell-based, 10-point CRC, membrane potential dye (AID 588401);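 note: membrane potential dye fluorescence of choline-evoked depolarization via CHT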
[6] = target: T2, Short transient receptor potential channel 4 (Mus musculus, UniProt Q9QUQ5); test: mouse TRPC4 channel activators, dose response, cell-based, HEK293 TRPC4/mu-opioid, Fluo-4 calcium (AID 434937)
T2 sequence (Q9QUQ5 whole entry): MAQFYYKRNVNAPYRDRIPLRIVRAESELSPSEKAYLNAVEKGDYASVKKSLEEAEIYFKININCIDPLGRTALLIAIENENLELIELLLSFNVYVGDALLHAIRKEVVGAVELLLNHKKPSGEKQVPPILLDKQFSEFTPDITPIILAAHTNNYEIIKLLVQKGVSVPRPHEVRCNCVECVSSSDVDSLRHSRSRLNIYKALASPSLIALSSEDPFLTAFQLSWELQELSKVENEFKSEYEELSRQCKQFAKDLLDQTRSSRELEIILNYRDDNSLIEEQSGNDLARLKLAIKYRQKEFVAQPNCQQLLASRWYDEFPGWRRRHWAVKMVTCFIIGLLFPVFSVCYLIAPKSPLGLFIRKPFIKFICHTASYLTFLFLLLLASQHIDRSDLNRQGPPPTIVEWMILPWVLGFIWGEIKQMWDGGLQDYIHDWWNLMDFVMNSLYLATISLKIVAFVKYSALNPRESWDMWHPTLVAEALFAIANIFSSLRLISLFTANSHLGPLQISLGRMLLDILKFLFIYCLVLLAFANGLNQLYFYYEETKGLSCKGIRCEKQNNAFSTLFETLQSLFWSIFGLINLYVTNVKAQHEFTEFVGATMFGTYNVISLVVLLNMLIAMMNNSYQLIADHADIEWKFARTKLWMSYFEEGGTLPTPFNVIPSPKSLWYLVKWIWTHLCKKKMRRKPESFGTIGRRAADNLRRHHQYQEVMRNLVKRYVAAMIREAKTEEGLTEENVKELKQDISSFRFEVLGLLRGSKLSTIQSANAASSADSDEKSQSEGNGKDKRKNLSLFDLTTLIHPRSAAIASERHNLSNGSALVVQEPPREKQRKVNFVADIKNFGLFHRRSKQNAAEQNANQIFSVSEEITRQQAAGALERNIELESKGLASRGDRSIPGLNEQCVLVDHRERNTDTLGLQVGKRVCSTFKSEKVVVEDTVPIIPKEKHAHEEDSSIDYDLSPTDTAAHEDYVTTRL

EC50 [1]: > 92.5 µM (inactive)
IC50 [2]: 4.43 µM (active)
EC50 [3]: 14.1 µM (inactive)
EC50 [4]: > 92.5 µM (inactive)
IC50 [5]: 3.76 µM (active)
EC50 [6]: 2.99 µM (active)
Compound: CCOc1ccc(S(=O)(=O)Nc2cccc(C(=O)NCC(c3ccccc3)N(C)C)c2)cc1 (stereo unspecified)
